Assay results: patent EP4778933A1 (Chengdu Hyperway Pharmaceuticals Co., Ltd., priority 2023, dated 2025)
Where two headings read alike, the source gives them in different places.

Experiments:
[1] = tested on: KRAS G12V-mediated ERK phosphorylation; assay: Inhibition of KRAS G12V-mediated ERK phosphorylation in SW480 cells; assay type: cell-based; details: 3 h incubation, read-out: Inhibitory activity on ERK phosphorylation (IC50) SW480-G12V
Experimental: (§1) Day 1: AGS cells, SW480 cells, NCI H358 cells, HCT116 cells, and KP2 cells were seeded into 384-well cell culture plates and cultured overnight in a 37°C, 5% CO2 incubator.
(§2) Day 2: The compounds were added to the plates using Echo550 and incubated for 3 h in a 37°C, 5% CO2 incubator. Then, cells fixed with paraformaldehyde, permeated with methanol and blocked with a blocking solution were added. Finally, a mixed solution of primary antibodies (rabbit anti pERK, mouse anti GAPDH) was added, and the mixture was incubated overnight at 4°C.
(§3) Day 3: The mixed solution of primary antibodies was discarded, and a mixed solution of secondary antibodies (goat anti rabbit 800 CW, goat anti mouse 680 RD) was added. The resulting mixture was incubated at room temperature in the dark. Finally, the cell culture plate was washed with PBST, and then inverted for 1 minute of centrifugation. The fluorescence signal values were read with Odyssey CLx.
(§4) ERK phosphorylation was calculated according to the following formula: [formula] • Negative control: DMSO • Positive control: 10 µM Reference • IC50 value was fitted and calculated by XLFit 5.0 using the parametric formula. • Y = Bottom+(Top-Bottom)/(1+10^((LogIC50-X)*HillSlope)) • X: log value of compound concentration. • Y: average value of relative expression of p-ERK between replicate wells.

[2] = tested on: KRAS G12D-mediated ERK phosphorylation; assay: Inhibition of KRAS G12D-mediated ERK phosphorylation in AGS cells (in-cell pERK/GAPDH immunofluorescence); assay type: cell-based; details: AGS cells, 3 h incubation; read-out: Inhibitory activity on ERK phosphorylation (IC50) AGS-G12D
Experimental: as §1, §2, §3, §4

[3] = In vivo pharmacokinetic test in mice; details: single dose 30 mg/kg, plasma, 30 mg/kg
Experimental: Each test compound was administered orally once to female BALB/c mice for pharmacokinetic study. The test compounds were prepared on the day of administration. The oral administration solvent: 50 mM sodium citrate (pH 5.0) + 10% captisol. The oral administration was conducted in a dose of 30 mg/kg. The animals were fasted for 10-14 h before oral administration, and the feeding was resumed 4 h after administration. Pharmacokinetic samples were collected through the orbit. The collection time points were: 15 min, 30 min, 1 h, 2 h, 4 h, 6 h, 8 h and 24 h after administration. Three whole blood samples were collected at each time point, with a collection volume of about 0.2 mL, and anticoagulated with sodium heparin. After blood samples were collected, they were immediately placed on ice and centrifuged within 1 h to isolate plasma (centrifugation conditions: 8000 rpm, 1 min, 2-8°C). The collected plasma was stored in a -20°C refrigerator before analysis. The concentrations of compounds in the plasma samples were determined using an LC-MS/MS analysis method.

| SMILES | IC50 [1] | IC50 [2] | AUC ([3]; female BALB/c mice, oral) | Cmax ([3]; female BALB/c mice, oral) | Cmax ([3]; female, BALB/c, mouse, po, read-out: Cmax) |
| --- | --- | --- | --- | --- | --- |
| CC1(O)COCCN(c2nc(OCC34CCCN3C(c3cc(F)c(F)c(F)c3)CC4)nc3c(F)c(-c4ccc(F)c5sc(N)c(C#N)c45)c(Cl)cc23)C1 (single isomer, unassigned) [Example 10, 2-amino-4-[6-chloro-8-fluoro-4-(6-hydroxy-6-methyl-1,4-oxazepan-4-yl)-2-({[3-(3,4,5-trifluorophenyl)-2,3,5,6,7,7a-hexahydro-1H-pyrrolizin-7a-yl]methyl}oxy)quinazolin-7-yl]-7-fluorobenzo[b]thiophene-3-carbonitrile] | > 1 µM | – | – | – | – |
| CC1(O)COCCN(c2nc(OCC34CCCN3C(c3cc(F)c(F)c(F)c3)CC4)nc3c(F)c(-c4ccc(F)c5sc(N)c(C#N)c45)c(Cl)cc23)C1 (single isomer, unassigned) [Example 11, 2-amino-4-[6-chloro-8-fluoro-4-(6-hydroxy-6-methyl-1,4-oxazepan-4-yl)-2-({[3-(3,4,5-trifluorophenyl)-2,3,5,6,7,7a-hexahydro-1H-pyrrolizin-7a-yl]methyl}oxy)quinazolin-7-yl]-7-fluorobenzo[b]thiophene-3-carbonitrile] | > 1 µM | – | – | – | – |
| CC1(O)COCCN(c2nc(OCC34CCCN3C(c3cc(F)c(F)c(F)c3)CC4)nc3c(F)c(-c4ccc(F)c5sc(N)c(C#N)c45)c(Cl)cc23)C1 (single isomer, unassigned) [Example 13, 2-amino-4-[6-chloro-8-fluoro-4-(6-hydroxy-6-methyl-1,4-oxazepan-4-yl)-2-({[3-(3,4,5-trifluorophenyl)-2,3,5,6,7,7a-hexahydro-1H-pyrrolizin-7a-yl]methyl}oxy)quinazolin-7-yl]-7-fluorobenzo[b]thiophene-3-carbonitrile] | 0.016 µM | – | – | – | – |

Second part, the compound after the results:

| IC50 [1] | IC50 [2] | AUC ([3]; female BALB/c mice, oral) | Cmax ([3]; female BALB/c mice, oral) | Cmax ([3]; female, BALB/c, mouse, po, read-out: Cmax) | SMILES |
| --- | --- | --- | --- | --- | --- |
| – | 0.033 µM | 6.017 µg·h/mL | 2.148 µg/mL | – | CC1(O)COCCN(c2nc(OCC34CCCN3C(c3cc(F)c(F)c(F)c3)CC4)nc3c(F)c(-c4cccc5sc(N)c(C#N)c45)c(Cl)cc23)C1 (single isomer, unassigned) [Example 18, 2-amino-4-[6-chloro-8-fluoro-4-(6-hydroxy-6-methyl-1,4-oxazepan-4-yl)-2-({[3-(3,4,5-trifluorophenyl)-2,3,5,6,7,7a-hexahydro-1H-pyrrolizin-7a-yl]methyl}oxy)quinazolin-7-yl]benzo[b]thiophene-3-carbonitrile] |
| – | 0.0042 µM | 9.224 µg·h/mL | – | 3.29 µg/mL | CC1(O)COCCN(c2nc(OCC34CCCN3C(c3cc(F)c(F)c(F)c3)CC4)nc3c(F)c(-c4cccc5sc(N)c(C#N)c45)c(I)cc23)C1 (single isomer, unassigned) [Example 28, 2-amino-4-[6-iodo-8-fluoro-4-(6-hydroxy-6-methyl-1,4-oxazepan-4-yl)-2-({[3-(3,4,5-trifluorophenyl)-2,3,5,6,7,7a-hexahydro-1H-pyrrolizin-7a-yl]methyl}oxy)quinazolin-7-yl]benzo[b]thiophene-3-carbonitrile] |
